From patent publication US20260000645A1, “USE OF EBSELEN OR ONE OF THE DERIVATIVES THEREOF TO TREAT MITOCHONDRIAL PATHOLOGIES OR DYSFUNCTIONS” (ASSOCIATION FRANCAISE CONTRE LES MYOPATHIES, priority 2022, published 2026)

What was measured:
HeLa KO FMC1 = test: Proliferation of HeLa KO FMC1 cell line (SRB); assay type: cell-based, human; conditions: glucose 1 g/L or galactose; 96 hours; dose-dependent, wide range of concentrations (pM to μM)
Method: The cell line HeLa KO FMC1, mimicking human illnesses related to a deficiency of ATP synthase (NARP, MILS syndromes), were generated by the CRISPR-Cas9 method. The cell line HeLa KO FMC1 was cultivated in a DMEM medium containing 4.5 g/L of glucose and 110 mg/l of pyruvate and 50 mg/l of uridine.
The rate of proliferation of this HeLa cell line in which the gene FMC1 was deleted was measured in a medium containing either a low concentration of glucose (1 g/L), or of galactose in micro-plates of 384 wells (4500 cells/cm^2 at T0) using the Sulforhodamine B (SRB) staining protocol 96 hours after seeding and treatment of the cells. The bars represent the average of 8 replicates coming from 3 independent experiments.

mutant Pa nuo-51^A357V = test: Growth halo of heat sensitive complex I mutant at 33° C.; assay type: cell-based, Podospora anserina; conditions: 20 nmoles of EBS, 4-5 days
Method: The strain used in the following examples contains a specific mutation modeling a human mutation in the sub-unit NDUFV1 of complex I leading to a mitochondrial illness. This strain has a growth defect at a non-permissive temperature greater than 31.5° C.
nuo-51^A357V: The mutation A357V was introduced into the gene nuo-51 of the wild type strain S along with a resistance cassette of nourseothricin (NatR). In order to mimic the human illness NDUFV1A341V, the genes NDI-1 and AOX were deactivated (El-Khoury et al., (2008) Curr Genet. 53:249-58)
The heat sensitive mutant Pa nuo-51^A357V was homogeneously spread on sterile glass beads on a square Petri dish containing a solid minimal medium (M2). Small sterile filters were then placed on the agar-agar surface and 20 nmoles of EBS were added. DMSO (the vehicle of the compound) was used as a negative control. The plate was then incubated at the non-permissive temperature of 33° C. for 4-5 days then photographed.

[1] = test system: fibroblasts of TAZ patients; test: Respiratory growth/proliferation of fibroblasts of TAZ patients (SRB, low glucose); assay type: cell-based, human
Method: EBS was tested for the effect thereof on the respiratory growth of fibroblasts of TAZ patients, as opposed to fibroblasts from eight different patients, carriers of mutations in the TAZ gene (suffering from Barth's syndrome).
The rate of proliferation was measured in a medium with a weak concentration of glucose (1 g/L; to force cells to use the OXPHOS system rather than glycolyse) in 384 well micro-titration plates (1200 cells/wells at T0) using the Sulforhodamine B (SRB) staining protocol at 24, 48, 72 or 96 hours after placing the cells with or without 12.15 nM of EBS.
The data are the average of 8 patients or 3 controls in triplicate, in 4 independent experiments.
The rate of proliferation was then measured under the same experimental conditions but with variable concentrations of ethaselen: The cells were analyzed 96 hours after treatment with increasing doses of ethaselen (from 150 pM to 26.1 μM). The bars represent the average of 4 replicates coming from 2 patients in 3 independent experiments.

[2] = test system: fibroblasts of TAZ patients; test: Mitochondrial ATP level in fibroblasts of TAZ patients (CellTiter-Glo); assay type: cell-based, human; conditions: EBS 12.15 nM for 96 hours
Method: The levels of mitochondrial ATP in the fibroblasts of TAZ patients were evaluated using a Promega CellTiter-Glo kit. The cells in 96 well plates (5000/well) were treated or not treated with 12.15 nM of EBS for 96 hours then were incubated in the presence of Antimycin A (100 μM), of Rotenone (0.5 μM) or oligomycin A (3 μM).

[3] = Weight of KO mice lacking the TAZ gene (mouse model of Barth syndrome); assay type: in vivo; conditions: 10 mg/kg force-fed twice a day from age 51 days, 1 month; vs solvent
Method: Mice lacking the TAZ gene (KO model of Barth syndrome) or wild type (WT) gene were force-fed twice a day with 10 mg/kg of Ebselen as of an age of 51 days. The weight was regularly monitored during 1 month of treatment.

[4] = test system: Cox2 protein in mutant strain taz1; test: Accumulation of Cox2 protein (SDS-PAGE/immunoblot) in taz1; assay type: cell-based, Saccharomyces cerevisiae; conditions: 1 μM of EBS
Method: Total protein extracts from the mutant yeast strain were analyzed by SDS-PAGE ([…] per well) using antibodies against the indicated proteins. The gels shown are representative of at least 3 experiments. Protein levels were quantified using the ImageJ software. The levels of Cox2 were normalized with respect to Ade13p and expressed with respect to the wild type (WT) strain.

mutant yeast strain taz1 = test: Respiratory growth in liquid culture (bioscreen, OD600); assay type: cell-based, Saccharomyces cerevisiae; conditions: taz1, liquid respiratory medium
Method: In order to determine the optimum concentration of EBS leading to the suppression of a respiratory growth defect of the mutant yeast strain, cells undergoing exponential growth were inoculated in fresh Ethanol YPA non-fermentable media supplemented or not supplemented with increasing concentrations of EBS. The growth of cells in the liquid respiratory medium was monitored using the bioscreen system over a period of 80 h during which (OD600 nm) cell densities were sampled every 20 minutes.

[5] = test system: myoblasts of a TAZ patient; test: Growth of myoblasts of TAZ patients (SRB, low glucose, 120 hours); assay type: cell-based, human
Method: EBS was also tested for the ability thereof to restore cell growth of a line of myoblasts from patients, carriers of mutations in the TAZ gene. The rate of proliferation was measured in a medium with a weak concentration of glucose in 384 well micro-titration plates (1200 cells/wells at T0) using the Sulforhodamine B (SRB) staining protocol at 48, 72, 96 or 120 hours after placing the cells.

[6] = 96 hours, vs negative control DMSO

SMILES: O=c1c2ccccc2[se]n1-c1ccccc1 [ebselen, 2-phenyl-1,2-benzisoselenazol-3(2H)-one]
- proliferation of model cells of an ATP synthase deficiency (HeLa KO FMC1): improves
- growth of the mutant (growth halo) (mutant Pa nuo-51^A357V): positive effect
- toxicity concentration ([1]; 96 hours, fibroblasts of TAZ patients): > 234.9 µM
- concentration range improving respiratory growth/proliferation, lower limit [1, 6]: ≥ 1.35 nM
- concentration range improving respiratory growth/proliferation, upper limit [1, 6]: ≤ 8.7 µM
- respiratory growth of fibroblasts of TAZ patients ([1]; EBS 12.15 nM, glucose 1 g/L, 24, 48, 72, 96 hours): improves
- time after which EBS is effective ([1]; EBS 12.15 nM, more pronounced at 48, 72 and 96 hours): 24 h
- mitochondrial ATP production [2]: improves
- weight of KO mice [3]: seemed to take on more weight
- accumulation of the protein Cox2 [4]: increases
- active concentration range, lower limit (mutant yeast strain taz1): ≥ 1 nM
- active concentration range, upper limit (mutant yeast strain taz1): ≤ 3 µM
- optimum concentration (mutant yeast strain taz1): 1 µM
- toxic concentration (mutant yeast strain taz1; 80 h): ≥ 27 µM
- toxicity concentration [5]: > 78.3 µM
- concentration range with beneficial effects on growth, lower limit ([5]; vs DMSO): ≥ 450 nM
- concentration range with beneficial effects on growth, upper limit ([5]; vs DMSO): ≤ 8.7 µM
